Assay [1] deals with diabetic rats. Briefly: glucose challenge 2.5 h after injection in diabetic rats (Example 38). It is filed as in vivo, wistar rats. Conditions: 4.1 IU subcutaneous in the neck, glucose 1.5 g/kg i.p. after 2.5 h, compared with normal group. The procedure:
Male wistar rats of 4-6 weeks were selected and fed for two weeks. streptozotocin (STZ) was administered once in a dose of 180 mg/kg (administered according to the specific body weight of the rat). The STZ was weighed according to the weight of the rat, put in a sterilized bottle, then wrapped with tinfoil. The sodium citrate buffer solution and the STZ bottle were brought into the animal room under ice bath conditions. A sodium citrate buffer solution with a concentration of 1% STZ (1 g/100 ml) was prepared, and injected into the tail vein within 30 minutes to prevent inactivation. After injection of STZ, adequate drinking water and feed were given every day. Fasting blood sugar was measured on the 1st day, 7th day, and 10th day. If it was greater than 16.65 mmol/L, it was a stable diabetes model. 2 groups of diabetic rats and 1 group of normal rats (4 rats in each group) were taken. Diabetic rat groups were subcutaneously injected with (1) 2.0 mg M3-2 (4.1 IU) and (2) insulin (4.1 IU) in the neck respectively. After 2.5 h of injection, g lucose (1.5 g/kg) was intraperitoneally injected into rats in the diabetes group and the normal group, and the blood sugar was detected.

A further assay deals with diabetic mice. The experiment in a line: glucose challenge after patch or injection in diabetic mice (Example 41). It counts as in vivo, C57bl/6 mice. Conditions: 12.0 IU/kg, glucose 1.5 g/kg i.p. after 2.5 h, compared with normal group. The procedure: 1.5 mg of M3-2 was added into 0.5 mL of ultrapure water, ultrasonically dispersed evenly. 0.25 g of hyaluronic acid (HA) was added, and stirred at room temperature until a homogeneous system was obtained to obtain an HA aqueous solution of M3-2, which was used as a pouring material of microneedle (Microneedles, MNs). 1 g of HA was added to 1 mL of ultrapure water and stirred at room temperature until clear and transparent to obtain a blank solution of HA, which was used as the base material of MNs. 50 μL HA aqueous solution of M3-2 was taken and added to the surface of the mold. […]
C57bl/6 mice (male, 4-6 weeks) were selected and fed adaptively for two weeks at room temperature of 24° C.±1° C., humidity of 55% for 12 h with bright cycle (8:00-20:00) with adequate water and feed. […] Fasting blood glucose was measured on the 3rd, 5th, 7th, 10th, and 21st days, and it was a stable diabetes model if it was greater than 16.65 mmol/L.
2 groups of diabetic mice and 1 group of normal mice (4 mice in each group) were taken. […] After 2.5 h of injection or patch, glucose (1.5 g/kg) was intraperitoneally injected into mice in the diabetes group and the normal group, and the blood sugar was detected.

Assay [2] has as its system diabetic rats. Briefly: blood sugar of diabetic rats after subcutaneous injection (Example 37). It is filed as in vivo, wistar rats. To be noted: same dose (4.1 IU). Here is the method:
Male wistar rats of 4-6 weeks were selected and fed for two weeks. streptozotocin (STZ) was administered once in a dose of 180 mg/kg (administered according to the specific body weight of the rat). The STZ was weighed according to the weight of the rat, put in a sterilized bottle, then wrapped with tinfoil. The sodium citrate buffer solution and the STZ bottle were brought into the animal room under ice bath conditions. A sodium citrate buffer solution with a concentration of 1% STZ (1 g/100 ml) was prepared, and injected into the tail vein within 30 minutes to prevent inactivation. After injection of STZ, adequate drinking water and feed were given every day. Fasting blood sugar was measured on the 1st day, 7th day, and 10th day. If it was greater than 16.65 mmol/L, it was a stable diabetes model. Diabetic rats were taken and divided into 4 groups (4 rats in each group). The group of diabetic rats were subcutaneously injected (1) 1.5 mg M3-2, (2) 2.0 mg M3-2 (4.1 IU), (3) 1.0 mL PBS buffer solution and (4) insulin (4.1 IU). Blood sugar in rats was monitored for a period of time after injection.

For the substance insulin, the “blood sugar regulation after intraperitoneal glucose” value in the assay on diabetic rats [1] is recorded as “the blood sugar quickly returns to a higher blood sugar level”; with diabetic mice, “the blood sugar quickly rises to a higher blood sugar level after glucose injection”. Moreover, in the assay with diabetic rats [2], the “duration of blood glucose at 100-200 mg/dL” value stood at 4.5 h.

The record behind these values is patent publication US20230310333A1, “MESOPOROUS SILICA NANOPARTICLE CONTROLLED RELEASE SYSTEM, PREPARATION METHOD THEREFOR AND APPLICATION THEREOF” (East China University of Science and Technology, priority 2020, published 2023).
